Results taken from the supplement of paper PMC10331698.
± gives the standard deviation of the averaged measurements.

Legend:
Assay in all cases: level (log10 ratio to DMSO vehicle control); higher = higher biomarker level / cell amount than vehicle control
Perfluorononanoic acid = compound: O=C(O)C(F)(F)C(F)(F)C(F)(F)C(F)(F)C(F)(F)C(F)(F)C(F)(F)C(F)(F)F [Perfluorononanoic acid] (in DMSO)
Experimental: (§1)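 BioMAP Diversity Plus panel of 12 human primary cell co-culture systems (3C, 4H, LPS, SAg, BT, BF4T, BE3C, CASM3C, HDF3CGF, KF3CT, MyoF, Mphg). Compounds were added 1 h before stimulation and left for 24 h (MyoF 48 h; BT 72 h for soluble read-outs or 6 d for IgG). Biomarkers were read by ELISA, cytotoxicity by SRB, PBMC viability and proliferation by Alamar Blue. Each well value was divided by the mean of 8 DMSO control wells on the same plate and log10 transformed; duplicate blinded samples were tested at 4 concentrations.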

[1] = compound: O=S(=O)(O)CCC(F)(F)C(F)(F)C(F)(F)C(F)(F)C(F)(F)C(F)(F)C(F)(F)C(F)(F)F [8:2 Fluorotelomer sulfonic acid] (in DMSO)
Experimental: as §1

Perfluoroundecanoic acid = compound: O=C(O)C(F)(F)C(F)(F)C(F)(F)C(F)(F)C(F)(F)C(F)(F)C(F)(F)C(F)(F)C(F)(F)C(F)(F)F [Perfluoroundecanoic acid] (in DMSO); details: 6700 nM
Experimental: as §1

[2] = compound: O=C(O)C(F)(OC(F)(F)C(F)(OC(F)(F)C(F)(OC(F)(F)C(F)(F)C(F)(F)F)C(F)(F)F)C(F)(F)F)C(F)(F)F [Perfluoro-(2,5,8-trimethyl-3,6,9-trioxadodecanoic)acid] (in DMSO)
Experimental: as §1

[3] = compound: O=S(=O)(O)C(F)(F)C(F)(F)C(F)(F)C(F)(F)C(F)(F)C(F)(F)C(F)(F)F [Perfluoroheptanesulfonic acid] (in DMSO)
Experimental: as §1

[4] = compound: C=C(C)C(=O)OCCC(F)(F)C(F)(F)C(F)(F)C(F)(F)C(F)(F)C(F)(F)C(F)(F)C(F)(F)F [8:2 Fluorotelomer methacrylate] (in DMSO)
Experimental: as §1

[5] = compound: OCCC(F)(F)C(F)(F)C(F)(F)C(F)(F)F [4:2 Fluorotelomer alcohol] (in DMSO)
Experimental: as §1

Row | Test System | level (log10) (Perfluorononanoic acid; 6700 nM) | level (log10) (Perfluorononanoic acid; 20000 nM) | level (log10) ([1]; 6700 nM) | level (log10) ([1]; 20000 nM) | level (log10) ([1]; 60000 nM) | level (log10) (Perfluoroundecanoic acid) | level (log10) ([2]; 1100 nM) | level (log10) ([2]; 3300 nM) | level (log10) ([2]; 10000 nM) | level (log10) ([3]; 1500 nM) | level (log10) ([3]; 4400 nM) | level (log10) ([3]; 13000 nM) | level (log10) ([3]; 40000 nM) | level (log10) ([4]; 6700 nM) | level (log10) ([4]; 20000 nM) | level (log10) ([5]; 6700 nM) | level (log10) ([5]; 20000 nM) | level (log10) ([5]; 60000 nM)
1 | HDF3CGF:EGFR | 0.0115 ± 0.057 | -0.037 ± 0.013 | -0.011 ± 0.033 | -0.0455 ± 0.03 | -0.101 ± 0.026 | -0.162 ± 0.0014 | -0.0365 ± 0.15 | -0.113 ± 0.16 | 0.025 ± 0.04 | 0.0085 ± 0.026 | -0.024 ± 0.059 | -0.033 ± 0.057 | 0.0245 ± 0.11 | -0.048 ± 0.071 | 0.0215 ± 0.091 | -0.0285 ± 0.028 | -0.001 ± 0.072 | 0.0275 ± 0.053
2 | HDF3CGF:M-CSF | 0.0115 ± 0.025 | -0.028 ± 0.028 | -0.0035 ± 0.056 | -0.014 ± 0.038 | -0.0685 ± 0.04 | -0.0425 ± 0.015 | 0.0165 ± 0.0064 | 0.0005 ± 0.033 | -0.03 ± 0.092 | -0.0025 ± 0.011 | 0.0075 ± 0.019 | 0.003 ± 0.016 | 0 ± 0.034 | -0.0295 ± 0.019 | -0.093 ± 0.013 | -0.027 ± 0.067 | -0.035 ± 0.023 | -0.004 ± 0.0057
3 | HDF3CGF:MMP-1 | -0.008 ± 0.0099 | -0.012 ± 0.0042 | 0.0205 ± 0.012 | -0.017 ± 0.028 | -0.0835 ± 0.036 | -0.004 ± 0.0057 | 0.029 ± 0.018 | 0.023 ± 0.0028 | -0.0075 ± 0.0021 | 0.0235 ± 0.013 | 0.013 ± 0.014 | 0.0205 ± 0.018 | 0.009 ± 0.024 | 0.013 ± 0.011 | 0.009 ± 0.018 | -0.025 ± 0.0057 | -0.0075 ± 0.011 | 0.0035 ± 0.0035
4 | HDF3CGF:PAI-I | 0.037 ± 0.062 | 0.0765 ± 0.064 | 0.018 ± 0.034 | -0.002 ± 0.021 | 0.0015 ± 0.0078 | -0.011 ± 0.0057 | 0.049 ± 0.078 | 0.056 ± 0.076 | 0.062 ± 0.047 | 0.02 ± 0.073 | 0.0135 ± 0.049 | -0.0315 ± 0.046 | -0.0325 ± 0.011 | -0.0305 ± 0.052 | -0.0635 ± 0.022 | -0.057 ± 0.086 | 0.008 ± 0.072 | -0.0255 ± 0.076
5 | HDF3CGF:Proliferation 72hr | 0.143 ± 0.036 | -0.182 ± 0.24 | 0.0275 ± 0.044 | 0.0785 ± 0.06 | 0.107 ± 0.0014 | -0.557 ± 0.11 | -0.0205 ± 0.011 | 0.038 ± 0.0099 | 0.0395 ± 0.028 | -0.042 ± 0.088 | -0.02 ± 0.031 | 0.076 ± 0.021 | 0.107 ± 0.0042 | -0.0395 ± 0.028 | -0.043 ± 0.069 | -0.014 ± 0.045 | -0.022 ± 0.0014 | 0.033 ± 0.027
6 | HDF3CGF:SRB | 0.014 ± 0.0014 | -0.0155 ± 0.026 | -0.044 ± 0.064 | -0.017 ± 0.1 | 0.168 ± 0.037 | 0.0395 ± 0.011 | -0.009 ± 0.023 | 0.0075 ± 0.011 | 0.027 ± 0.0071 | -0.042 ± 0.028 | -0.045 ± 0.011 | -0.0065 ± 0.015 | 0.035 ± 0.1 | -0.021 ± 0.055 | -0.0015 ± 0.046 | -0.0105 ± 0.015 | -0.022 ± 0.0028 | 0.011 ± 0.013
7 | HDF3CGF:TIMP-1 | -0.0225 ± 0.026 | -0.039 ± 0.03 | 0.0375 ± 0.0064 | 0.0435 ± 0.037 | -0.0365 ± 0.077 | 0.0385 ± 0.043 | -0.0095 ± 0.04 | 0.003 ± 0.03 | 0.0065 ± 0.011 | -0.004 ± 0.013 | -0.001 ± 0.071 | -0.002 ± 0.045 | 0.012 ± 0.1 | -0.0115 ± 0.036 | -0.0375 ± 0.074 | -0.045 ± 0.018 | -0.02 ± 0.059 | 0.0035 ± 0.005
